Measurements reported in patent US7718715B2, “pH-modified latex comprising a synergistic combination of biocides” (S.C. Johnson & Son, Inc., priority 2004, dated 2010).

Assays:
C. albicans & A. niger = assay: Challenge Test end point on yeast and mold and Synergy Index (Kull); format: cell-based; settings: Dowicil 75 acting alone (QA); test stabilized acrylic latex A
Experimental: Each of the 25-g samples were inoculated or challenged with 0.10 ml of the bacterial inoculum, the yeast inoculum, and the mold inoculum respectively on day-0 and day-14. All samples were stored at ambient temperature. Each sample (10 microliter) was streaked on appropriate agar plates (bacteria on Tryptic Soy Agar (Difco Laboratories, Detroit, Mich.) plates with neutralizer and yeast/mold on Potato Dextrose Agar (Difco Laboratories, Detroit, Mich.) plates with neutralizer) on day-1, day-2, day-3, day-7, day-14, day-15, day-16, day-17, day-21, and day-28 to test for survivors. Streaked plates were incubated at appropriate temperature and time (48-hr at 35±2° C. for bacteria and 72-hr at 28±2° C. for yeast/mold). […] Plates were read after incubation time. […]
Synergism was determined by the method described by F. C. […] Eisman, H. D. Sylwestrowicz, and R. L. Mayer in Applied Microbiology, Volume 9, pages 538-541, 1961 using the ratio determined by • Synergy Index (SI)=Qa/QA+Qb/QB=1 is additivity, <1 is synergism, and >1 is antagonism • where, • Qa=concentration of compound A, in the mixture, producing an end point • QA=concentration of compound A, acting alone, producing an end point • Qb=concentration of compound B, in the mixture, producing an end point • QB=concentration of compound B, acting alone, producing an end point

Candida albicans #10231 = assay: Challenge Test (Antimicrobial Effectiveness Test), yeast inoculum; format: cell-based; design: key to Challenge Test result: Yeast C. albicans: Fail: Recovery of surviving organisms at 14 days was a failing result for the challenge test; settings: for Challenge Test result: Yeast C. albicans: stabilized acrylic latex A
Experimental: The following cultures were obtained from American Type Culture Collection (ATCC) at 10801 University Boulevard, Manassas, Va. 20110-2209: Escherichia coli #11229, Pseudomonas aeruginosa #15442, Candida albicans #10231, Aspergillus niger #6275.
The yeast inoculum was 0.10 ml of a 72-hr±4 hr culture of C. albicans in 25 grams of sample to give approximately 2×10^5 CFU/g. The C. albicans culture was grown in Potato Dextrose Broth (Difco Laboratories, Detroit, Mich.) at 28° C.
Each of the 25-g samples were inoculated or challenged with 0.10 ml of the bacterial inoculum, the yeast inoculum, and the mold inoculum respectively on day-0 and day-14. All samples were stored at ambient temperature. Each sample (10 microliter) was streaked on appropriate agar plates (bacteria on Tryptic Soy Agar (Difco Laboratories, Detroit, Mich.) plates with neutralizer and yeast/mold on Potato Dextrose Agar (Difco Laboratories, Detroit, Mich.) plates with neutralizer) on day-1, day-2, day-3, day-7, day-14, day-15, day-16, day-17, day-21, and day-28 to test for survivors. Streaked plates were incubated at appropriate temperature and time (48-hr at 35±2° C. for bacteria and 72-hr at 28±2° C. for yeast/mold). On day-14, each sample was re-inoculated with appropriate inoculum after streaking on agar plates. Plates were read after incubation time. Recovery of surviving organisms at 14 days was a failing result for the challenge test.
Biocides were always added after the reaction has been completed and after the batch has been cooled to <50° C. The desired temperature was dependent on the specific biocide. Many biocides become deactivated if exposed to high temperatures for an extended time. Each biocide was diluted with about 5× its weight with DI water and slowly added to the batch with good agitation. The dilution is to prevent the biocide from shocking the latex. The batch was mixed for a minimum of 20 minutes after the biocide was added to ensure good incorporation. If any temporary destabilization to the latex had occurred, it had time to recover prior to filtration.
The Challenge Test is a qualitative laboratory procedure used to differentiate poorly and marginally preserved products from well-preserved products. Products are intentionally inoculated with test organisms and then evaluated by use of streak plating technique to determine if microbial reduction has been attained.

Aspergillus niger #6275 = assay: Challenge Test (Antimicrobial Effectiveness Test), mold inoculum; format: cell-based; settings: stabilized acrylic latex A
Experimental: The following cultures were obtained from American Type Culture Collection (ATCC) at 10801 University Boulevard, Manassas, Va. 20110-2209: Escherichia coli #11229, Pseudomonas aeruginosa #15442, Candida albicans #10231, Aspergillus niger #6275. The mold inoculum was 0.10 ml of A. niger culture specimen in 25 grams of sample to give approximately 2×10^5 CFU/g. The culture specimen was obtained from 7-day-old A. niger culture grown on Sabouraud Dextrose Agar (Difco Laboratories, Detroit, Mich.) with 0.2% Triton X-100 in 0.85% saline. Each of the 25-g samples were inoculated or challenged with 0.10 ml of the bacterial inoculum, the yeast inoculum, and the mold inoculum respectively on day-0 and day-14. All samples were stored at ambient temperature. Each sample (10 microliter) was streaked on appropriate agar plates (bacteria on Tryptic Soy Agar (Difco Laboratories, Detroit, Mich.) plates with neutralizer and yeast/mold on Potato Dextrose Agar (Difco Laboratories, Detroit, Mich.) plates with neutralizer) on day-1, day-2, day-3, day-7, day-14, day-15, day-16, day-17, day-21, and day-28 to test for survivors. Streaked plates were incubated at appropriate temperature and time (48-hr at 35±2° C. for bacteria and 72-hr at 28±2° C. for yeast/mold). On day-14, each sample was re-inoculated with appropriate inoculum after streaking on agar plates. Plates were read after incubation time. Recovery of surviving organisms at 14 days was a failing result for the challenge test. Biocides were always added after the reaction has been completed and after the batch has been cooled to <50° C. The desired temperature was dependent on the specific biocide. Many biocides become deactivated if exposed to high temperatures for an extended time. Each biocide was diluted with about 5× its weight with DI water and slowly added to the batch with good agitation. The dilution is to prevent the biocide from shocking the latex. The batch was mixed for a minimum of 20 minutes after the biocide was added to ensure good incorporation. If any temporary destabilization to the latex had occurred, it had time to recover prior to filtration. The Challenge Test is a qualitative laboratory procedure used to differentiate poorly and marginally preserved products from well-preserved products. Products are intentionally inoculated with test organisms and then evaluated by use of streak plating technique to determine if microbial reduction has been attained.

[1] = system: Escherichia coli #11229, Pseudomonas aeruginosa #15442; assay: Challenge Test (Antimicrobial Effectiveness Test), bacterial inoculum (1:1 mixture); format: cell-based, E. coli & P. aeruginosa; settings: stabilized acrylic latex A
Experimental: The following cultures were obtained from American Type Culture Collection (ATCC) at 10801 University Boulevard, Manassas, Va. 20110-2209: Escherichia coli #11229, Pseudomonas aeruginosa #15442, Candida albicans #10231, Aspergillus niger #6275. The bacterial inoculum was 0.10 ml of a 1:1 mixture of the 24-hr±4 hr culture of E. coli and P. aeruginosa in 25 grams of sample to give approximately 4×10^6 CFU/g. Both E. coli culture and the P. aeruginosa culture were grown in Nutrient Broth (Difco Laboratories, Detroit, Mich.) at 35° C. Each of the 25-g samples were inoculated or challenged with 0.10 ml of the bacterial inoculum, the yeast inoculum, and the mold inoculum respectively on day-0 and day-14. All samples were stored at ambient temperature. Each sample (10 microliter) was streaked on appropriate agar plates (bacteria on Tryptic Soy Agar (Difco Laboratories, Detroit, Mich.) plates with neutralizer and yeast/mold on Potato Dextrose Agar (Difco Laboratories, Detroit, Mich.) plates with neutralizer) on day-1, day-2, day-3, day-7, day-14, day-15, day-16, day-17, day-21, and day-28 to test for survivors. Streaked plates were incubated at appropriate temperature and time (48-hr at 35±2° C. for bacteria and 72-hr at 28±2° C. for yeast/mold). On day-14, each sample was re-inoculated with appropriate inoculum after streaking on agar plates. Plates were read after incubation time. Recovery of surviving organisms at 14 days was a failing result for the challenge test. Biocides were always added after the reaction has been completed and after the batch has been cooled to <50° C. The desired temperature was dependent on the specific biocide. Many biocides become deactivated if exposed to high temperatures for an extended time. Each biocide was diluted with about 5× its weight with DI water and slowly added to the batch with good agitation. The dilution is to prevent the biocide from shocking the latex. The batch was mixed for a minimum of 20 minutes after the biocide was added to ensure good incorporation. If any temporary destabilization to the latex had occurred, it had time to recover prior to filtration. The Challenge Test is a qualitative laboratory procedure used to differentiate poorly and marginally preserved products from well-preserved products. Products are intentionally inoculated with test organisms and then evaluated by use of streak plating technique to determine if microbial reduction has been attained.

[2] = 0.20% Dowicil 75, 0.00% Bronopol, DN 12%, pH 6.3
[3] = 0.30% Dowicil 75, 0.00% Bronopol, DN 4%, pH 5.7
[4] = 0.40% Dowicil 75, 0.00% Bronopol, DN 4%, pH 5.75
[5] = 0.40% Dowicil 75, 0.00% Bronopol, DN 17%, pH 6.5

ClC=CC[N+]12CN3CN(CN(C3)C1)C2.[Cl-] [Dowicil 75, 1-(3-chloroallyl)-3,5,7-triaza-1-azoniaadamantane chloride]
>0.4%: Compound A end-point in % (C. albicans & A. niger)
Fail: Challenge Test result: Yeast C. albicans (Candida albicans #10231; [2]) | Challenge Test result: Yeast C. albicans (Candida albicans #10231; [5])
failed to control: control of Candida albicans (Candida albicans #10231; maximum allowable level, test stabilized acrylic latex)
failed to kill: killing of the yeast (C. albicans) (Candida albicans #10231; 0.4% DOWICIL 75, stabilized acrylic latex A with DN at 17%)
Pass: Challenge Test result: Yeast C. albicans (Candida albicans #10231; [3]) | Challenge Test result: Yeast C. albicans (Candida albicans #10231; [4]) | Challenge Test result: Mold A. niger (Aspergillus niger #6275; [2]) | Challenge Test result: Mold A. niger (Aspergillus niger #6275; [3]) | Challenge Test result: Mold A. niger (Aspergillus niger #6275; [4]) | Challenge Test result: Mold A. niger (Aspergillus niger #6275; [5]) | Challenge Test result: Bacteria E. coli & P. aeruginosa [1, 2] | Challenge Test result: Bacteria E. coli & P. aeruginosa [1, 3] | Challenge Test result: Bacteria E. coli & P. aeruginosa [1, 4] | Challenge Test result: Bacteria E. coli & P. aeruginosa [1, 5]
